Reference: article PMC11600510 (Journal of Chemical Information and Modeling, 2024)

Assays:
[1] = system: SARS-CoV-2; type: cell-based
[2] = target: T1, CYP1A2 (Homo sapiens, UniProt P05177); assay: Isozyme-specific CYP450 inhibition; type: in vitro ADME; conditions: recombinant human CYP1A2 with CYP450 reductase (Baculosomes), probe fluorescent substrate (not named)
T1 construct: purchased Thermo Fisher Scientific; host or cells: Baculosomes
T1 sequence (P05177 2-516 limits assumed): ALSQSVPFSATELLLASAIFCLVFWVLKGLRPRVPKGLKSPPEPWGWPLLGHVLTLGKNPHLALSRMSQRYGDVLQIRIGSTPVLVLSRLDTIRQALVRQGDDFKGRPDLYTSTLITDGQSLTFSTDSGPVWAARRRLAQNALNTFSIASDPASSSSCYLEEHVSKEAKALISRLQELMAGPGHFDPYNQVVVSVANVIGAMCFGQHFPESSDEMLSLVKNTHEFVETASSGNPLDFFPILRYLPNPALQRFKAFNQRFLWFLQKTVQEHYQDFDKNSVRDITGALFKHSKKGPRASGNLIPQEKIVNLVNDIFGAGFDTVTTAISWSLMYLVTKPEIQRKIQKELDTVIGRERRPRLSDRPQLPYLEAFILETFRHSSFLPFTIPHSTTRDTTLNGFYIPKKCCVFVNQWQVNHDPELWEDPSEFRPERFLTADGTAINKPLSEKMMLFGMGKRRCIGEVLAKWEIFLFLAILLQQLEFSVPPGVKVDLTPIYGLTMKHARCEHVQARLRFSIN
Protocol: (§1) For this, the activity of CYP1A2, CYP2A6, CYP2B6, CYP2C9, CYP2C19, CYP2D6, and CYP3A4 was assessed after the administration of CKP-25 at 1 μM to determine (a) the oxidative (CYP-mediated) metabolic stability profile in question and (b) the enzyme metabolizing isoforms responsible (the test system consists of recombinant human CYP450 and CYP450 reductase; cytochrome b5 may also be present). Herein, no concentration-dependent effects were reported. […] No product inhibition or mechanism-based inactivation of the CYP450 isoenzymes in question was obtained. Test-compounds with poor solubility can show artificially low CYP450 inhibition and thus, chemical entities with potential drug–drug interaction toxicities may be overlooked.
(§2) Human cytochrome P450 (CYP450) isoenzymes were expressed in Baculosomes obtained from Thermo Fisher Scientific (Waltham, MA, USA). Reagents were handled and prepared following the manufacturer’s guidelines. Compound CKP-25 was evaluated at a concentration of 1 μM according to our established standard operating procedures and protocols as described previously.[127],[128] The enzymatic activity of various CYP450 isoforms (CYP1A2, CYP2A6, CYP2B6, CYP2C9, CYP2C19, CYP2D6, and CYP3A4) was measured, considering the kinetic model for each isoform. The reactions were conducted in triplicate at 20 °C. NADP+ (10 mM in 100 mM potassium phosphate, pH 8.0) was converted to NADPH using a regeneration system containing glucose-6-phosphate (333 mM) and glucose-6-phosphate dehydrogenase (30 U/mL in 100 mM potassium phosphate, pH 8.0). Upon the addition of the fluorescent substrate, signal monitoring was performed immediately (within 2 min) using appropriate excitation and emission wavelengths, recorded by an Agilent BioTek Lionheart FX (Winooski, VT, USA). CYP450 inhibition (%) was calculated based on the reaction rates (fluorescence intensity changes per unit time). In total, n = 60 meaurements per minute were recorded over a 60 min period. [drawing 2] where X, the rate observed in the presence of a test-compound; A, the rate observed in the presence of negative (solvent, DMSO) control.

[3] = target: T2, CYP2A6 (Homo sapiens, UniProt P11509); assay: Isozyme-specific CYP450 inhibition; type: in vitro ADME; conditions: recombinant human CYP2A6 with CYP450 reductase (Baculosomes), probe fluorescent substrate (not named)
T2 construct: purchased Thermo Fisher Scientific; host or cells: Baculosomes
T2 sequence (P11509 1-494): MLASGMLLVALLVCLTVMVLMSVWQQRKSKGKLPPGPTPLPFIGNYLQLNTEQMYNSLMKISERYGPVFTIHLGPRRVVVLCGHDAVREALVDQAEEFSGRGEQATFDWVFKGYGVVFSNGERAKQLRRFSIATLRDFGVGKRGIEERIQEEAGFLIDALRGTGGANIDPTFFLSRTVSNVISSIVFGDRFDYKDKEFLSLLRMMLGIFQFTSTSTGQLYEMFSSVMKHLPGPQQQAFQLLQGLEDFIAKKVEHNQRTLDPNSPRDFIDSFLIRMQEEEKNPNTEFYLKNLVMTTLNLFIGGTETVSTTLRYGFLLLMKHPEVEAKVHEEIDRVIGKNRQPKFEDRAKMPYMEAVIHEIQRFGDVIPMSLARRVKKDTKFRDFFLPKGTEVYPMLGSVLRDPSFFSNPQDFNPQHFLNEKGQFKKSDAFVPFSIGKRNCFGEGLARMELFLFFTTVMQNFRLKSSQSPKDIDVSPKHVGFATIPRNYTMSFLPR
Protocol: as §1, §2

[4] = target: T3, CYP2C9 (Homo sapiens, UniProt P11712); assay: Isozyme-specific CYP450 inhibition; type: in vitro ADME; conditions: recombinant human CYP2C9 with CYP450 reductase (Baculosomes), probe fluorescent substrate (not named)
T3 construct: purchased Thermo Fisher Scientific; host or cells: Baculosomes
T3 sequence (P11712 whole entry): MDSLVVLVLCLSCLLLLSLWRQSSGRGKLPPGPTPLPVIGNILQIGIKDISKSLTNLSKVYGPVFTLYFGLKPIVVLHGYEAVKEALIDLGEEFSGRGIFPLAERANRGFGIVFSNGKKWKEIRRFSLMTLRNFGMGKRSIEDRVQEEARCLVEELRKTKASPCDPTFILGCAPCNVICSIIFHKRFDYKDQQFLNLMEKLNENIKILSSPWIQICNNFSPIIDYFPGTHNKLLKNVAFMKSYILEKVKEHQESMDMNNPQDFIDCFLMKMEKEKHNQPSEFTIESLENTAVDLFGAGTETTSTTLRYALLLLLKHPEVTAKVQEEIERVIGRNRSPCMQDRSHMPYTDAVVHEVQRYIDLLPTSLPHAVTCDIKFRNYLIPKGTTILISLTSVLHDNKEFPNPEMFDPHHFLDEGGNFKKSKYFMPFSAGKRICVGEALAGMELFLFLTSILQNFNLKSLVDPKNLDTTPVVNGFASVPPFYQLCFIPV
Protocol: as §1, §2

[5] = target: T4, CYP2C19 (Homo sapiens, UniProt P33261); assay: Isozyme-specific CYP450 inhibition; type: in vitro ADME; conditions: probe fluorescent substrate (not named)
T4 construct: purchased Thermo Fisher Scientific; host or cells: Baculosomes
T4 sequence (P33261 whole entry): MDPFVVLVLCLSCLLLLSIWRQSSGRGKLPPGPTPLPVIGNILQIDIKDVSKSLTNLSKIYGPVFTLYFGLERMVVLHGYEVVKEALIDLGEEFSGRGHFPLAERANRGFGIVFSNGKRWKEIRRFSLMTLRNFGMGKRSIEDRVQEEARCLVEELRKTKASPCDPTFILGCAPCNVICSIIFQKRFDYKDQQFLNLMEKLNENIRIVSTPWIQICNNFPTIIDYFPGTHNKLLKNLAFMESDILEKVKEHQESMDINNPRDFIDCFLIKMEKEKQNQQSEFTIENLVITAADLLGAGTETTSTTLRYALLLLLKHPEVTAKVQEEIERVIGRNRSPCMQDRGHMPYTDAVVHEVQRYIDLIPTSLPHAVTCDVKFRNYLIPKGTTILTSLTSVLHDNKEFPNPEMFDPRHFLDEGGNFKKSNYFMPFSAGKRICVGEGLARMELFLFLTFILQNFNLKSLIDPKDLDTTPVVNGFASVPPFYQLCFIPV
Protocol: as §1, §2

[6] = target: T5, CYP3A4 (Homo sapiens, UniProt P08684); assay: Isozyme-specific CYP450 inhibition; type: in vitro ADME; conditions: recombinant human CYP3A4 with CYP450 reductase (Baculosomes), probe fluorescent substrate (not named)
T5 construct: purchased Thermo Fisher Scientific; host or cells: Baculosomes
T5 sequence (P08684 2-503 limits assumed): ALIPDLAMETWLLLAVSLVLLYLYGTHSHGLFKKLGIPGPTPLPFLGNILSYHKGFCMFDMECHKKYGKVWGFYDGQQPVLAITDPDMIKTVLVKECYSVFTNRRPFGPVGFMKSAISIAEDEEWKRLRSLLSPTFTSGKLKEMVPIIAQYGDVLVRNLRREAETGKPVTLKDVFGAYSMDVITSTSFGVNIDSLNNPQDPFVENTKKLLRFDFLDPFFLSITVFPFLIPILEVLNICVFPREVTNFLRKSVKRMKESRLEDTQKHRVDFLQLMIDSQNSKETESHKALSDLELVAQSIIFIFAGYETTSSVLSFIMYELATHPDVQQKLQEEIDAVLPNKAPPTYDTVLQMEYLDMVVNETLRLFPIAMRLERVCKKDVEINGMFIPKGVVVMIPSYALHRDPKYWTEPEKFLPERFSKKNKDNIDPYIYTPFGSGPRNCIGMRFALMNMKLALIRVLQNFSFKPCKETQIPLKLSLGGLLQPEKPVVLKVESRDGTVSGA
Protocol: as §1, §2

[7] = target: T6, CYP2D6 (Homo sapiens, UniProt P10635); assay: Isozyme-specific CYP450 inhibition; type: in vitro ADME; conditions: recombinant human CYP2D6 with CYP450 reductase (Baculosomes), probe fluorescent substrate (not named)
T6 construct: purchased Thermo Fisher Scientific; host or cells: Baculosomes
T6 sequence (P10635 whole entry): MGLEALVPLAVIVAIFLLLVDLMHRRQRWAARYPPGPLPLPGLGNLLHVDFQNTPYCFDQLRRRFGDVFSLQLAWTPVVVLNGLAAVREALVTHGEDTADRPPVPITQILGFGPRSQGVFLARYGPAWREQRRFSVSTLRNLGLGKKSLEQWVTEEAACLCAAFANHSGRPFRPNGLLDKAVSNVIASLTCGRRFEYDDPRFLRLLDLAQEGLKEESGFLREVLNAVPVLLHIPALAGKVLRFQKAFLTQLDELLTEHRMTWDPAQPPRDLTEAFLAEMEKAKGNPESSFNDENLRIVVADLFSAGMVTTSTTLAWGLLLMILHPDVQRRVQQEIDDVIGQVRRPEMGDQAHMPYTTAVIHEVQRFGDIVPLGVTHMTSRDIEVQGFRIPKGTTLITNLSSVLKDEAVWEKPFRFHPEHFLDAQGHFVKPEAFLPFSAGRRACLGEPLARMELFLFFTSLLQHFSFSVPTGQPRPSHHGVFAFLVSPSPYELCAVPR
Protocol: as §1, §2

[8] = target: T7, CYP2B6 (Homo sapiens, UniProt P20813); assay: Isozyme-specific CYP450 inhibition; type: in vitro ADME; conditions: recombinant human CYP2B6 with CYP450 reductase (Baculosomes), probe fluorescent substrate (not named)
T7 construct: purchased Thermo Fisher Scientific; host or cells: Baculosomes
T7 sequence (P20813 1-491): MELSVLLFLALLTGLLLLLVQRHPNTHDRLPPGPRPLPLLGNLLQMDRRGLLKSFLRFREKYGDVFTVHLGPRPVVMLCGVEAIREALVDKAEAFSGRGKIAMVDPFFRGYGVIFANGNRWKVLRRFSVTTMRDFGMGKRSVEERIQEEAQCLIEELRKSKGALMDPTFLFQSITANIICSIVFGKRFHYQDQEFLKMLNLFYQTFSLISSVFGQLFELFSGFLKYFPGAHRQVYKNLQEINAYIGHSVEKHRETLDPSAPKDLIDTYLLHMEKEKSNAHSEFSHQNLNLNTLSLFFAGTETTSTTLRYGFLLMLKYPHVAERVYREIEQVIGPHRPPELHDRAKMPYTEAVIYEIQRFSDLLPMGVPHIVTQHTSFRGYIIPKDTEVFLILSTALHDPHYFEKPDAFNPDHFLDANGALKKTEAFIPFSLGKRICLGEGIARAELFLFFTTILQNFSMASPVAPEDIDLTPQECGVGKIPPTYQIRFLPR
Protocol: as §1, §2

COc1cccc2c1ncn2Cc1ccc2ccccc2c1 [CKP-25, 4-Methoxy-1-(naphthalen-2-ylmethyl)-1H-benzo[d]imidazole]
effect on viral load in the cell culture supernatant (in words) [1]: reduced the viral load | inhibition at 60 min, 1 µM [2]: 0% | inhibition at 60 min, 1 µM [3]: 6% | inhibition at 60 min, 1 µM [4]: 11% | inhibition at 60 min, 1 µM [5]: 20% | inhibition at 60 min, 1 µM [6]: 3% | inhibition at 60 min, 1 µM [7]: 1% | inhibition at 60 min, 1 µM [8]: 0%
